# From the OPERA property sets (Mansouri et al. 2018)
Compound,melting point [°C],boiling point [°C],ready biodegradability,log10 Koc (L/kg),log10 vapour pressure (mmHg),log10 biodegradation half-life (days)
CC[C@@H]1CN2CCc3c([nH]c4cccc(OC)c34)[C@H]2C[C@@H]1/C(=C\OC)C(=O)OC,104,,,,,
CCN(CC)CC#CCOC(=O)C(O)(c1ccccc1)C1CCCCC1.Cl (stereo not given),130,,,,,
N#C[S-].[NH4+],150,,,,,
CC(C)(C)C(=O)Cl,,107,,,,
CC1=CC(=O)c2ccccc2C1=O,107,,,,,
O[C@H]1[C@H](O)[C@H](O)OC[C@H]1O,158,,,,,
Cc1cc(O)cc(Br)c1,56.5,,,,,
NC(=S)Nc1ccccc1,154,,,,,
CNc1ccccc1[N+](=O)[O-],38,,,,,
CC(C)=CCN=C(N)N,62.5,,,,,
c1cncc([C@@H]2CCCCN2)c1,9,276,,,,
CC(O)CBr (stereo not given),,146,,,,
CC=CCCC,,,not readily biodegradable,,,
CCOCC(=O)Cl,,125,,,,
CS(=O)(=O)c1ccc([C@@H](O)[C@@H](CO)NC(=O)C(Cl)Cl)cc1,165,,,,,
Cc1ccccc1N=Cc1ccccc1,,314,,,,
CCn1cc(C(=O)O)c(=O)c2cc(F)c(N3CCNCC3)nc21,222,,,,,
CN(C)CCN,,105,not readily biodegradable,,,
Cc1cc(C)c(C)c(O)c1,93.5,230,,3.61,-2.42,
Cc1cc(O)c(C(C)(C)C)cc1Sc1cc(C(C)(C)C)c(O)cc1C,162,,not readily biodegradable,,,
O=C(O)c1ccccc1C(=O)O,,,readily biodegradable,1.07,-6.2,
CC(CCC(=O)O)c1ccccc1 (stereo not given),13,,,,,
OCC1=CCN2CC[C@@H](O)[C@@H]12,120,,,,,

Compound,melting point [°C],boiling point [°C],ready biodegradability,log10 Koc (L/kg),log10 vapour pressure (mmHg),log10 biodegradation half-life (days)
COCC(COC)OC,,148,,,,
C=C=CCCl,,88,,,,
OC[C@H]1O[C@H](O[C@H]2O[C@H](CO)[C@@H](O)[C@H](O)[C@H]2O)[C@H](O)[C@@H](O)[C@@H]1O,203,,,,,
C[C@H](F)Cl,,16.2,,,,
CN(CC(=O)N1CCOCC1)Cc1c(Cl)cccc1NC(=O)c1ccccc1,123,,,,,
Cc1cc(C)c(C)c(C)c1C,54.5,232,,,-1.46,
O=[N+]([O-])c1ccccc1Sc1ccccc1,82,,,,,
COC(=O)c1ccc(Cl)cc1[N+](=O)[O-],44,,,,,
CCCSP(=O)(OCC)Oc1ccc(Br)cc1Cl (stereo not given),,,,3.03,-6.05,
COC(=O)c1ccc(C(F)(F)F)nc1S(=O)(=O)[N]([Na])C(=O)Nc1nc(OC)cc(OC)n1,,,,1.46,,
COc1cc(Cl)c(Cl)cc1OC,83,,,,,
OCC(S)CS (stereo not given),,,,,-2.3,
CCC(C)c1cc([N+](=O)[O-])cc([N+](=O)[O-])c1OC(=O)OC(C)C (stereo not given),61,,,,,
ClCOCCl,-41.5,106,,,1.47,
CCC(C)(C)C(C)C,-101,115,,,1.43,1.72
C[C@H]1CC(=O)C[C@@H]2CC[C@H]3[C@@H]4CC[C@H](O)[C@@]4(C)CC[C@@H]3[C@]21C,204,,,,,
C[C@]12CC[C@H]3C(=CCc4cc(O)ccc43)[C@@H]1CC[C@@H]2O,174,,,,,
NN1CCCCC1,,147,,,,
COC(=O)C1(S(=O)(=O)c2ccc(Cl)cc2)CCC1,76.2,,,,,
Nc1ccc2ncccc2c1,114,,,,-4.79,
CC(C)C1CC1,-113,58.3,,,,
O=[N+]([O-])c1cc([N+](=O)[O-])c(F)cc1F,73,,,,,
CCOC(=O)CC(=O)CC,,191,,,,

Compound,melting point [°C],boiling point [°C],ready biodegradability,log10 Koc (L/kg),log10 vapour pressure (mmHg),log10 biodegradation half-life (days)
N#Cc1ccc2c(c1)N(CCCN1CCC(O)CC1)c1ccccc1S2,116,,,,,
O=C1NC(=O)c2c1cccc2[N+](=O)[O-],214,,,,,
CCOC(=O)c1ccccc1N,13,268,,,,
C(#Cc1ccccc1)c1ccccc1,62.5,300,,,-2.64,
CNC(=O)Oc1ccc2c(c1)[C@]1(C)CCN(C)[C@@H]1N2C,106,,,,,
Nc1ccccc1C(=O)O,145,,readily biodegradable,,,
CCCCC(C)O (stereo not given),,136,not readily biodegradable,,0.396,
CNC1(c2ccccc2Cl)CCCCC1=O.Cl (stereo not given),262,,,,,
c1cc2c3c(c1)CCCN3CCC2,40,,,,,
CCCCOCCOC(=O)COc1ccc(Cl)cc1Cl,,,,,-5.35,
CC(=O)O[C@]1(C(C)=O)CC[C@H]2[C@@H]3C[C@H](C(F)(F)F)C4=CC(=O)CC[C@]4(C)[C@H]3CC[C@@]21C,206,,,,,
OC1CCCCCC1,2,185,,,,
Cc1ccc(S(N)(=O)=O)cc1,138,,not readily biodegradable,,,
CCCCCCCCCCC/C=C\CCCCC(=O)O,29.8,,,,,
Cc1ccccc1OP(=O)(Oc1ccccc1C)Oc1ccccc1C,,,readily biodegradable,,,
Clc1cccc2cccc(Cl)c12,89,,,,,
O=C(Cl)c1ccc([N+](=O)[O-])cc1,75,,,,,
CC(=O)Nc1ccc(OC(=O)c2ccccc2OC(C)=O)cc1,175,,,,,
CC(C)(O)C(Cl)(Cl)Cl,97,167,not readily biodegradable,,,
CCCCCCCC(N)=O,108,239,,,,
O=C(O)c1ccccc1Nc1ccccc1,184,,,,,
CCOCCOC(C)(C)C,,148,,,,
CC1=Cc2ccccc2C1,80,208,,,,0.477
